Experimental data: patent US10934529B2, “Three dimensional hydrogels for culturing organoids” (Ecole Polytechnique Fèdèrale de Lausanne, priority 2015, dated 2021)
Entries after “also recorded” stand apart in the source; their conditions may differ.

How the values were obtained:
Assay type in all cases: cell-based, mouse
[1] = tested on: intestinal stem cells (ISCs); assay: ISC colony formation efficiency / ISC expansion in hydrogels; conditions: for ISC colony formation, ECM component in combination with RGD / ISC colony formation / self-renewal, ECM component alone: component in soft (300 Pa) or stiff (1300 Pa) PEG matrices; for ISC colony formation / self-renewal, ECM component alone: without RGD; for Expansion of Lgr5+ cells: supplement to standard intestinal organoid growth medium, PEG-RGD culture
Description: Freshly isolated crypts or single cells from dissociated colonies were added to the Matrigel or hydrogels precursor solution and cast in 20-μL droplets at the bottom of wells in 24-well plate. […] For single cell culture, thiazovivin (2.5 μM; Stemgent) and Jagged-1 peptide ([…]; Anaspec) was included in the medium during the first two days. Broad spectrum protease inhibitor, GM6001, was added to the medium while embedding the cells in PEG hydrogels. Every two days the growth factors were replenished and the full medium was changed.
(§1) To quantify the colony formation efficiency of single embedded ISCs, phase contrast z-stacks spanning the entire thickness of the cell-laden Matrigel or PEG gels were collected (Zeiss Axio Observer Z1) at 5 different locations within the gels. The Cell Counter plugin in ImageJ (NIH) was used to quantify the fraction of cells which had formed colonies at day 4 after seeding. To assess the viability of intestinal tissue fragments embedded in PEG, phase contrast images of the entire gel were collected. The fraction of viable tissues was estimated based upon the epithelial morphology: tissues that featured an epithelial monolayer surrounding a central lumen after 24 h of embedding were deemed viable.

[2] = tested on: freshly-isolated intestinal crypts; assay: Survival and morphogenesis of freshly isolated intestinal crypts embedded in 3D matrices; conditions: component presented alongside RGD in PEG-RGD hydrogel
Excerpt: Matrigel is currently used to grow epithelial organoids. To address the question of whether Matrigel serves as merely a passive 3D scaffold, providing physical support, or actively influences organoid formation by presenting essential cues, freshly-isolated intestinal crypts were embedded into enzymatically crosslinked PEG hydrogels, which are soft and hydrated and thus mimic the basic physical properties of Matrigel without providing any biochemical signals.
Intestinal crypt isolation: Mouse intestine crypts were isolated following procedures known in the art. Briefly, the proximal part of the intestine was harvested, opened longitudinally and washed with ice-cold PBS. The luminal side of the intestine was scraped using a glass slide to remove luminal content and villous structures. After washing with ice-cold PBS again, the intestine was cut into 2-4 mm pieces with scissors. The pieces were transferred to a 50 ml Falcon tube and further washed with cold PBS (5-10 times) with gentle vortexing. […]
To quantify the colony formation efficiency of single embedded ISCs, phase contrast z-stacks spanning the entire thickness of the cell-laden Matrigel or PEG gels were collected (Zeiss Axio Observer Z1) at 5 different locations within the gels. The Cell Counter plugin in ImageJ (NIH) was used to quantify the fraction of cells which had formed colonies at day 4 after seeding. […]

intestinal organoids = assay: Viability, growth and morphogenesis of intestinal organoids / tissue fragments in hydrogels
Excerpt: To identify a short sequence that supports intestinal cell survival, a library of soft (G′=200 Pa) hydrogels was created, in which specific binding sequences from the laminin al subunit (Table 1) were tethered to the PEG backbone.
as §1

ISC colonies = assay: ISC colony differentiation and intestinal organoid formation; conditions: for ISC colony differentiation and organoid formation in soft PEG-RGD gels supplied with an ECM component: colonies grown in 1 kPa PEG-RGD, transferred into soft F-PEG-RGD, differentiation conditions; for Organoid formation from ISCs grown in soft laminin-containing gels: after switching to organoid formation conditions
Description: To induce stem cell differentiation and organoid formation, the medium was removed, the gels were incubated in PBS (1 hr, […]) to remove residual CHIR99021 and valproic acid, and fresh medium containing EGF, Noggin and Respondin was added. In general, growth factors were replenished every two days, with full medium change taking place every four days.
Intestinal organoids embedded in Matrigel or PEG were fixed with 4% paraformaldehyde (PFA) in PBS (30 min, RT). The fixation process typically led to complete degradation of the Matrigel. […] Following resuspension in water, the organoids were spread on glass slides and allowed to attach by drying. Attached organoids were rehydrated by adding PBS. Following fixation, organoids embedded in PEG or spread on glass were permeabilized with 0.2% Triton X-100 in PBS (1 h, RT) and blocked (10% goat serum in PBS containing 0.01% Triton X-100) for at least 2 h. Samples were subsequently incubated with blocking buffer-dissolved phalloidin-Alexa 546 (Invitrogen) and primary antibodies against lysozyme (1:50; Thermo Scientific) or mucin-2 (1:25; Santa Cruz) (overnight, 4° C.). After washing with PBS for 3 h (during which PBS was replaced every hour), samples were incubated with secondary antibody (Alexa 647) organoids were imaged in epifluorescence (Zeiss Axio Observer Z1) or confocal (Zeiss LSM 710) mode.

Lgr5-EGFP = Lgr5-EGFP reporter expression in colonies and organoids; conditions: cultured in the presence of collagen-I
Excerpt: Lgr5-EGFP was expressed in the expected pattern, localized to the crypt-like buds of the organoids (FIG. 3B). […] Stem cell differentiation into functional cell types was confirmed by immunofluorescence analysis. Staining for lysozyme verified the presence of Paneth cells in the expected locations, interspersed with Lgr5+ stem cells in the characteristic checkerboard pattern (FIG. 3F). The organoids therefore retained the normal characteristics of epithelial cell organoids during culture in the hydrogels.
Intestinal crypts were extracted from 5-10 week old heterozygous Lgr5-EGFP-IRES-CreERT2 mice (Jackson Laboratory), following animal experimentation protocols prescribed by EPFL and FELASA.

laminin-511: ECM component incorporated in PEG hydrogels
ISC colony formation, ECM component in combination with RGD [1]: no effect | ISC colony formation / self-renewal, ECM component alone [1]: no effect

RKRLQVQLSIRT [AG73, synthetic peptide derived from the globular domain of the laminin al chain]
Crypt viability [2]: synergistic increase in crypt viability | Organoid viability (intestinal organoids; soft (G'=200 Pa) PEG hydrogels with tethered laminin a1 subunit binding sequences): significantly enhanced organoid viability | Effect of amount of tethered AG73 on organoid viability and growth (intestinal organoids; varying amount of AG73 tethered to PEG gel backbone): dose-dependent effect; also recorded: concentration-dependent | ISC colony differentiation and organoid formation in soft PEG-RGD gels supplied with an ECM component (ISC colonies): showed some early signs of differentiation and morphogenesis; also recorded: failed to support ISC colony differentiation and organoid formation

Perlecan: ECM component incorporated in PEG hydrogels
ISC colony formation, ECM component in combination with RGD [1]: starkly increased colony formation efficiency | ISC colony formation / self-renewal, ECM component alone [1]: did not alter ISC self-renewal | ISC colony differentiation and organoid formation in soft PEG-RGD gels supplied with an ECM component (ISC colonies): failed to support ISC colony differentiation and organoid formation

CNC(=O)[C@H](Cc1c[nH]c2ccccc12)NC(=O)[C@@H](CC(=O)NO)CC(C)C [GM6001, reference compound]
Colony formation efficiency on blocking MMP activity, high matrix stiffness ([1]; printed: within non-degradable gels, high stiffness): reduced it to levels observed in non-degradable gels | Colony formation efficiency on blocking MMP activity, low matrix stiffness ([1]; printed: within non-degradable gels, low stiffness): did not alter colony formation efficiency

Cc1c[nH]c(-c2cnc(NCCNc3ccc(C#N)cn3)nc2-c2ccc(Cl)cc2Cl)n1 [CHIR99021, reference compound]
Expansion of Lgr5+ cells [1]: increased

CCCC(CCC)C(=O)O [valproic acid, reference compound]
Expansion of Lgr5+ cells [1]: increased

Laminin-111: extracellular matrix glycoprotein, heterotrimer of α, β and γ chain
ISC colony formation, ECM component in combination with RGD [1]: increased colony formation efficiency | ISC colony formation / self-renewal, ECM component alone [1]: effectively supported colony formation in soft matrices; also recorded: supports ISC colony formation within soft matrices | Stiffness at which ISC colony formation efficiency peaks ([1]; laminin-containing gels): 700 Pa | ISC colony formation ([1]; soft hydrogels containing both RGD and laminin-111): 30-50% | Efficiency in inducing ISC colony formation compared with RGD ([1]; soft, 300 Pa hydrogel): significantly more efficient | Organoid formation from ISCs grown in soft laminin-containing gels (ISC colonies; listed as laminin): give rise to organoids | Organoid formation from ISCs grown in soft laminin-containing gels (ISC colonies; listed as laminin-111): a small portion of the ISC colonies gave rise to intestinal organoids | ISC colony differentiation and organoid formation in soft PEG-RGD gels supplied with an ECM component (ISC colonies): pronounced morphogenesis and organoid formation; also recorded: required for organoid formation

Collagen-I: ECM component incorporated in PEG hydrogels
ISC colony formation, ECM component in combination with RGD [1]: did not have a striking effect | ISC morphology ([1]; soft hydrogels with collagen-I and RGD): adopted a spindle-like morphology | Lgr5-EGFP in viable cells and colonies (Lgr5-EGFP): largely devoid of Lgr5-EGFP

Fibronectin
ISC colony formation, ECM component in combination with RGD [1]: no added effect | ISC colony formation / self-renewal, ECM component alone [1]: appreciable colony formation only in stiff matrices | ISC colony differentiation and organoid formation in soft PEG-RGD gels supplied with an ECM component (ISC colonies): failed to support ISC colony differentiation and organoid formation

Hyaluronic acid [reference compound]
Crypt viability [2]: synergistic increase in crypt viability | ISC colony formation, ECM component in combination with RGD [1]: did not appear to influence | ISC colony differentiation and organoid formation in soft PEG-RGD gels supplied with an ECM component (ISC colonies): failed to support ISC colony differentiation and organoid formation

Cc1ccc2c(c1)C(=O)C1(O)CCN(c3ccccc3)C1=N2 (stereo not drawn) [blebbistatin, reference compound]
Effect of blocking myosin-mediated contractility on colony formation efficiency ([1]; PEG-RGD matrices of varying stiffness): abolished the stiffness-induced increase in colony formation efficiency

Arginine-Glycine-Aspartic Acid [RGD, reference compound]
Shear modulus at which ISC expansion / colony formation efficiency is optimal ([1]; RGD-containing gels of varying stiffness): 1.3 kPa | RGD concentration at which ISC colony formation efficiency reached a plateau ([1]; TG-PEG-RGD, varying RGD): approximately 500 μM
